Among the test systems are HOP-62 NSCLC; CCRF-CEM leukemia; UO-31 renal; SK-MEL-2 melanoma; A549 NSCLC; MDA-MB-231 breast; MOLT-4 leukemia; NCI/ADR-RES ovarian; SF-539 CNS; MALME-3M melanoma.
Assay in all cases: NCI tumour cell line growth inhibition, 48 h

Where “and” joins values, the source holds several entries; their conditions need not be identical. Identical values can stand only once.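 Cells were grown in 96-well plates and exposed to each compound for 48 hours at five concentrations; endpoints were interpolated linearly between bracketing concentrations, or set to the highest concentration if not reached. Here, GI50 denotes the concentration required for 50% inhibition of growth. TGI: concentration producing complete growth inhibition.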 A value given as a limit tells only on which side of the number the result lay.

On to `Cc1csc2[n+]1-c1ccccc1N(C(=O)Nc1ccccc1)C(C)C2` (stereo not drawn), for which the GI50 was 41.9 µM in the assay on HOP-62 NSCLC; 29.5 µM with CCRF-CEM leukemia; over 100 µM in the assay with UO-31 renal; over 100 µM in the assay with SK-MEL-2 melanoma; 36.6 µM in the assay on A549 NSCLC; 18.6 µM in the assay with MDA-MB-231 breast. Besides, the GI50 with MOLT-4 leukemia was 88.5 µM; in the assay on NCI/ADR-RES ovarian, 25.1 µM. The TGI is over 100 µM in the assay on HOP-62 NSCLC; 69.6 µM in the assay on CCRF-CEM leukemia; over 100 µM with UO-31 renal; over 100 µM with SK-MEL-2 melanoma; over 100 µM in the assay on A549 NSCLC; 45.3 µM in the assay on MDA-MB-231 breast. The TGI in the assay with MOLT-4 leukemia is over 100 µM; in the assay with NCI/ADR-RES ovarian, 88.4 µM.
For `C[C@]12CC[C@H]3[C@@H](CC=C4C[C@@H](N5CCCC5)CC[C@@]43C)[C@@H]1C/C(=C\c1cccc(OCCN3CCOCC3)c1)[C@@H]2O`, the GI50 with HOP-62 NSCLC is 2.76 µM; in the assay on SF-539 CNS, 1.41 µM; in the assay with UO-31 renal, 3.11 µM; with MALME-3M melanoma, 2.15 µM; in the assay on SK-MEL-2 melanoma, 14.1 µM; with A549 NSCLC it was 3.48 µM. For the same compound, the GI50 in the assay with MDA-MB-231 breast was 2.24 µM. Moreover, the TGI in the assay with HOP-62 NSCLC is 9.83 µM; in the assay with SF-539 CNS, 3.38 µM; in the assay on UO-31 renal it was 9.97 µM; in the assay with MALME-3M melanoma it was 6.11 µM; in the assay with SK-MEL-2 melanoma, 31.8 µM; with A549 NSCLC, 45.4 µM. Further, in the assay on MDA-MB-231 breast, the TGI was found to be 5.37 µM.
`CCCCCCCCCCCCCCCCCCn1cc[n+](C)c1`: the GI50 with CCRF-CEM leukemia was 0.127 µM and 0.458 µM; in the assay with SF-539 CNS, 1.06 µM; in the assay with UO-31 renal, 1.03 µM; in the assay on MDA-MB-231 breast, 1.08 µM; in the assay with MOLT-4 leukemia, 0.189 µM and 0.65 µM; with NCI/ADR-RES ovarian, 1.58 µM. Further, the TGI came to 2.4 µM with SF-539 CNS, 2.41 µM in the assay on UO-31 renal, 2.52 µM in the assay with MDA-MB-231 breast and 5.47 µM in the assay on NCI/ADR-RES ovarian.
Regarding `COc1ccc(/C(COc2ccc3oc(-c4ccccc4)cc(=O)c3c2)=N\O)cc1`, the GI50 is 1.72 µM in the assay with HOP-62 NSCLC; 0.346 µM in the assay on CCRF-CEM leukemia; 1.25 µM with SF-539 CNS; 1.6 µM in the assay with UO-31 renal; 32.1 µM in the assay with SK-MEL-2 melanoma; 0.133 µM in the assay with A549 NSCLC. Besides, the GI50 in the assay with MDA-MB-231 breast is 0.182 µM; with MOLT-4 leukemia it was 0.678 µM; in the assay with NCI/ADR-RES ovarian it was 0.11 µM. The TGI in the assay with HOP-62 NSCLC is over 50 µM; in the assay on CCRF-CEM leukemia it was over 50 µM; with SF-539 CNS, 2.72 µM; with UO-31 renal it was over 50 µM; in the assay with SK-MEL-2 melanoma, over 50 µM; with A549 NSCLC it was over 50 µM. For the same compound, the values for the TGI in the assay on MDA-MB-231 breast, in the assay with MOLT-4 leukemia and in the assay with NCI/ADR-RES ovarian were 9.17 µM, over 50 µM and 5.51 µM, respectively.
For `NCCCC[C@@H]1NC(=O)[C@H](CC(=O)O)NC(=O)CNC(=O)[C@H](CCCN=C(N)N)NC(=O)[C@@H](N)CSSC[C@@H](C(=O)O)NC(=O)[C@H](CC(=O)O)NC(=O)[C@@H]2CCCN2C(=O)CNC1=O`, the GI50 in the assay with HOP-62 NSCLC, in the assay on CCRF-CEM leukemia, in the assay on SF-539 CNS, in the assay on MALME-3M melanoma, with A549 NSCLC and in the assay on MOLT-4 leukemia was over 100 µM in each case. Also, the GI50 in the assay on NCI/ADR-RES ovarian was over 100 µM. The TGI in the assay on HOP-62 NSCLC, in the assay on CCRF-CEM leukemia, in the assay with SF-539 CNS, in the assay on MALME-3M melanoma, with A549 NSCLC and with MOLT-4 leukemia was over 100 µM each time. The same compound gave a TGI in the assay with NCI/ADR-RES ovarian of over 100 µM.
Turning to `COc1ccc(-c2nc(-c3ccc(C)cc3)cn3ccnc23)cc1`, the GI50 with HOP-62 NSCLC was 13.9 µM; in the assay with CCRF-CEM leukemia it was 5.47 µM; with SF-539 CNS it was 5.73 µM; in the assay with UO-31 renal, 12 µM; in the assay on SK-MEL-2 melanoma it was 20.8 µM; in the assay on A549 NSCLC it was 3.97 µM. Moreover, the GI50 in the assay with MDA-MB-231 breast was 4.24 µM; with MOLT-4 leukemia, 22.3 µM; in the assay with NCI/ADR-RES ovarian it was 2.16 µM. Also, the TGI is over 50 µM in the assay on HOP-62 NSCLC; over 50 µM in the assay on CCRF-CEM leukemia; 31 µM in the assay with SF-539 CNS; over 50 µM in the assay with UO-31 renal; over 50 µM in the assay on SK-MEL-2 melanoma; over 50 µM in the assay on A549 NSCLC. Moreover, the TGI in the assay on MDA-MB-231 breast was 38.8 µM; in the assay with MOLT-4 leukemia it was over 50 µM; with NCI/ADR-RES ovarian, over 50 µM.
As to `CCOC(=O)c1cc2c(cc1Cl)SC(=Nc1ccccc1)N(S(=O)(=O)c1ccc(Cl)cc1)S2(=O)=O`, the GI50 in the assay on HOP-62 NSCLC was 16 µM; in the assay with CCRF-CEM leukemia, 2.57 µM; with SF-539 CNS, 18.3 µM; with UO-31 renal it was 15.9 µM; with SK-MEL-2 melanoma, 12.1 µM; in the assay with A549 NSCLC it was 26.1 µM. The results for the GI50 in the assay on MDA-MB-231 breast, in the assay on MOLT-4 leukemia and in the assay on NCI/ADR-RES ovarian were 13.2 µM, 11.7 µM and 18.3 µM, respectively. The TGI in the assay with HOP-62 NSCLC was 32.6 µM; in the assay with CCRF-CEM leukemia it was 7.4 µM; with SF-539 CNS it was 34.8 µM; in the assay on UO-31 renal it was 33.3 µM; in the assay with SK-MEL-2 melanoma, 30.4 µM; in the assay with A549 NSCLC, 68 µM. Further, the figures for the TGI in the assay on MDA-MB-231 breast, in the assay on MOLT-4 leukemia and in the assay with NCI/ADR-RES ovarian were 33.7 µM, 37.3 µM and 36.5 µM, respectively.

Source of the values: PubChem BioAssay (NCI).
